Measurements: patent publication US8956622B2, “Peptidic antagonists of class III semaphorins/neuropilins complexes” (INSERM—Institut National de la Sante et de la Recherche …, priority 2005, dated 2015)

What was measured:
[1] = tested on: COS-1 cells expressing NRP1 and Plexin-A1; test: COS cellular collapses triggered by Sema3A; assay type: cell-based; details: peptide 10^−9 M, 1 hour pre-incubation, Sema 3A 4 hours
Experimental: Nevertheless, the artificial expression of NRP1 and Plexin-A1 in COS cells allows Sema 3A to trigger cellular collapses. To investigate the effect of the pTM-NRP1 peptide on the Sema3A functional properties, the shape of COS cells expressing NRP1 and Plexin-A1 was analyzed in the presence or not of Sema 3A and of pTM-NRP1 or pTM-NRP1^mut peptide.
COS-1 cells have been transfected by 1 μg of pBK-CMV (STRATAGENE) plasmids containing NRP1 and plexin-A1 coding sequences (provided by Pr. PUSCHEL; MUNSTER Universitat, Germany) with LIPOFECTAMINE 2000 (IN VITROGEN) according to the manufacturer's instructions in 6-well plates. Stably COS-1 transfected cells have been selected with 0.7% geneticine. Stably transfected COS-1 cells have been cultured on 12-well plates with previously poly-L-lysine-coated glass coverslips. Cells have been then incubated 1 hour with pTM-NRP1 or pTM-NRP1^mut peptide (10^−9M) at 37° C. The culture medium has been then removed and replaced by conditioned medium of HEK cells stably transfected or not with a construction expressing Sema 3A (100 μl/ml D-MEM) for 4 hours at 37° C. Finally, cells have been fixed with 2% formaldehyde for 30 minutes followed by 15 minutes in formaldehyde 4%. For each condition tested, about 400 cells have been analyzed.

NRP1 [2] = target: T1, NRP1 (Rattus norvegicus, UniProt Q9QWJ9); test: AP-Sema3A binding to its receptor NRP1 on C6 glioma cells (luminescence); details: peptide 10^−12 M to 10^−10 M, 1 hour
T1 construct: Rat C6 glioma cells, which express semaphorin receptors; endogenous in cells; host or cells: rat C6 glioma cells
Experimental: In order to investigate the NRP1 transmembrane domain role in the linkage NRP1-class III semaphorins, the binding of the ligand Sema3A to its receptor NRP1 on glioma cells was measured in the presence or not of the transmembrane domain peptide of NRP1 (pTM-NRP1 peptide; SEQ ID NO. 1) or of a mutated peptide (mpTM-NRP1; SEQ ID NO. 20, […]). These pTM-NRP1 Peptides have been synthesized by automatic peptidic synthesis (Fmoc chemistry, APPLIED SYSTEM), and analyzed by mass spectrometry. Peptides purity has been estimated by RP-HPLC (BECKMAN) as higher than 90%.
Rat C6 glioma cells, which express semaphorin receptors, has been used to determine the binding capacity of AP-Sema3A, a secreted alkaline phosphatase version of Sema 3A (ADAMS et al., 1997, BAGNARD et al., 1998). These cells were grown and plated in MEM medium (GIBCO) with 10% foetal calf serum (PERBIO), glutamine 0.5 mM (GIBCO) and antibiotics: 100 U/ml penicillin and 100 μg/ml streptomycin (SIGMA).
C6 Cells were cultured in 96-well plates and incubated with or without freshly diluted pTM-NRP1 or pTM-NRP1^mut peptides (10^−12 M to 10^−10 M) for 1 hour at 37° C. The culture medium has been then replaced by conditioned medium of HEK cells stably transfected with a construction expressing AP-Sema 3A (ADAMS et al., EMBO J., vol. 16(20), p: 6077-86, 1997; BAGNARD et al., 1998). Conditioned medium from HEK non transfected cells has been used as an internal control. The pTM-NRP1 Peptide has been synthesized by automatic peptidic synthesis (Fmoc chemistry, APPLIED SYSTEM), and analyzed by mass spectrometry. Peptides purity has been estimated by RP-HPLC (BECKMAN) as higher than 90%, the cells have been washed with PBS and incubated with 50 μl of alkaline phosphatase luminescent substrate (AMERSHAM). The luminescence has been read after 15 minutes with MICROLUMAT PLUS system (BERTHOLD TECHNOLOGIES) according to the manufacturer's instructions. Experiments were done 4 times for each peptide.

NRP1 [3] = target: T2, NRP1 (Homo sapiens, UniProt O14786); test: AP-Sema3A binding to NRP1-expressing COS cells (optical density per cell); details: peptide 10^−9 M, 1 hour pre-incubation
T2 construct: mutations were introduced into the TM domain of a full length NRP1; expressed in transfected cells; host or cells: COS-1 cells, pBK-CMV plasmid (cDNA provided by Pr. Puschel)
T2 sequence (O14786 22-923): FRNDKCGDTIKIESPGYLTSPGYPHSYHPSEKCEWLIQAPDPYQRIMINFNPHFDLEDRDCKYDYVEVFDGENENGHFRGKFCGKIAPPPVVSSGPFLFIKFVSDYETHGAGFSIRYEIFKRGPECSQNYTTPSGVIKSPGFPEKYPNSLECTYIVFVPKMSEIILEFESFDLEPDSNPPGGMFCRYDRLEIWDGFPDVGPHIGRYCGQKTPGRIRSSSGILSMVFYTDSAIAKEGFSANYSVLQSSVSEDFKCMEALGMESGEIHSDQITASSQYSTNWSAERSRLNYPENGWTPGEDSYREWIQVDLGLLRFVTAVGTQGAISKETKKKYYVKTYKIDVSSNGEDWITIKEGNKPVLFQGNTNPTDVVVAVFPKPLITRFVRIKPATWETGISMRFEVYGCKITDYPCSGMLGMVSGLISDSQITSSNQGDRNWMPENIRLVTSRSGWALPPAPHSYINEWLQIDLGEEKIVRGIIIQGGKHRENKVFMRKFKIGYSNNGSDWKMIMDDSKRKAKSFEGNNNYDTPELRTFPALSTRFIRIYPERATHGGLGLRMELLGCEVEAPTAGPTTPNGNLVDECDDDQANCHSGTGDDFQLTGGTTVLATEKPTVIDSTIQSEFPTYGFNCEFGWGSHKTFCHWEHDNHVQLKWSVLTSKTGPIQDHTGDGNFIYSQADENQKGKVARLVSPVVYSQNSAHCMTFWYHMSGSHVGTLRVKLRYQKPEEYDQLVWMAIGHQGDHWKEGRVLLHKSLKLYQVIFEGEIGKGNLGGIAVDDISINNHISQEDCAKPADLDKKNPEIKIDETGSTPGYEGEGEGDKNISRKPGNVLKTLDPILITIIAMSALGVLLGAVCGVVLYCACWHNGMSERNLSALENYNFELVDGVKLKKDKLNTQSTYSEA
Experimental: NRP1 expressing COS cells were incubated with AP-Sema3A, a fusion protein of Sema3A and the secreted alkaline phosphatase (BAGNARD et al., 1998).
Wild-type COS cells or NRP1-expressing COS cells (COS-NRP1) were cultured on 12-wells plates on poly-L-lysine-coated glass coverslips (0.005 mg/ml). After one-hour incubation with pTM-NRP1 or pTM-NRP1^mut (10^−9M) in serum-free medium at 37° C., the culture medium was replaced by conditioned medium containing alkaline phosphatase-coupled Sema3A (AP-Sema3A; BAGNARD et al., 1998) obtained from AP-Sema3A stably expressing HEK cells for 90 mn. Conditioned medium without semaphorin served as a control (obtained from non-transfected HEK). Cells were washed three times with PBS and fixed in 4% formaldehyde before transfer in a new dish. After three washes in PBS, the plate was warmed for 50 mn at 65° C. Cells were subsequently incubated with 1 ml of alkaline phosphatase substrate (NBT/BCIP, SIGMA) in the dark. After 45 mn, substrate was removed and glass coverslips were rinsed. Pictures were acquired with a conventional microscope and analyzed with AxioVision LE Zeiss software. For each condition tested, about 60 cells were analyzed to determine binding levels as a function of optical density. Statistical analysis was performed by using a Student's t test.

[4] = tested on: VEGF165 signalling in C6 cells; test: VEGF165-induced migration of C6 tumour cell aggregates in 3D matrix (plasma clot); assay type: cell-based; details: VEGF165 50 ng/ml, peptide 10^−8 M
Experimental: NRP1 is a receptor of VEGF (NEUFELD et al., Adv. Exp. Med. Biol., vol. 515, p: 81-90, 2002). We therefore verified that pTM-NRP1 can antagonize VEGF signalling in C6 cells. To this end, C6 tumour cell aggregates prepared as previously described (see BAGNARD et al., 1998; and NASARRE et al., Neoplasia, vol. 7, p: 180-189, 2005) were grown in the 3D matrix (plasma clot) and treated with VEGF165.

[5] = tested on: cortical axons collapses triggered by Sema3A; test: Cortical axons collapses triggered by Sema3A in neocortex explants; assay type: cell-based, mouse; details: peptide 10^−8 M, Sema3A 100 ng/ml
Experimental: The inhibitory axon growth property of Sema 3A is supposed to be linked to its induction capacity of growth cone collapses. To investigate the effect of the pTM-NRP1 peptide on the Sema 3A functional properties, the growth of cortical neurons was analyzed in the presence or not of Sema 3A and of pTM-NRP1 or pTM-NRP1^mut (NRP1 TM with a triple G→V mutation) peptides.
Laminine/Poly-L-Lysine substrates have been made by adding 980 μL of Gey's balanced salt solution (GBSS, SIGMA) to 10 μL laminine (1 mg/ml, SIGMA) and to 10 μL poly-L-Lysine (10 mg/ml, SIGMA). Sterile coverslips have been placed in a big dish and added with substrate (100 μL). Then, ‘sandwiches’ have been prepared by covering each coverslip with a second one. After an incubation for at least 30 min at 37° C. under 5% CO2 in air, ‘sandwiches’ have been opened and each coverslip has been rinsed with deionized water. Explants have been cultured on dried coverslips.
Neocortex fragments prepared from E15 mouse embryos (E1 determined as the first day of embryonic development by detection of vaginal plug) have been transferred on a tissue chopper disk. Tissue have been cut into 200×200 μm by rotating the disk by 90° after the first cut. Cortex cubes have been collected with a spatula and put into culture medium in a Petri dish. Two coverslips with substrate have been placed in a small Petri dish (50 mm diameter, FALCON). After adding 750 μl of culture medium, the coverslips should stay in the incubator for at least 10 minutes. Using a dissecting microscope, forty to fifty cortical explants have been collected in 20 μl culture medium and carefully placed onto the coverslips. After 15 min at room temperature, most explants have adhered to their substrate. 2250 μl of culture medium have been slowly added to each dish. Then, explants cultures have been kept at 37° C. under 5% CO2 in air.
A radial outgrowth could be seen after 18-24 h in culture, and individual fibres and growth cones could have therefore been analyzed. Products tested on growth cones have been directly added in culture medium for 2 h: • purified Sema3A (100 ng/ml) prepared from conditioned medium of HEK293 cells stably expressing Sema3A. The purification was performed by using the anti-Flag system, SIGMA) • pTM-NRP1 (10^−8, 10^−9, 10^−10 and 10^−11 M), • 10^−8M mpTM-NRP1, • 10^−8M pTM-ErbB2w (SEQ ID NO. 18).
After incubation, 4% formaldehyde has been directly added in culture medium (v/v) for 15min. Then the solution has been removed and replaced by 4% formaldehyde for 15 min.

binding of AP-Sema3A to its receptor NRP1 on C6 cells (NRP1 [2])	binding of AP-Sema3A to NRP1-expressing COS cells (NRP1 [3])	Sequence	effect on cellular collapses of COS-1 cells triggered by Sema 3A [1]	VEGF165-dependent C6 cells migration out of aggregates [4]	effect on cortical axons collapses triggered by Sema3A [5]
did not block	did not block	ILITIIAMSALVVLLVAVCVVVLYRKR [pTM-NRP1^mut, reference compound]	did not block	not able to block	did not block
–	–	SIISAVVGILLVVVLGVVFGILI [ErbB2 peptide, reference compound]	–	–	no effect
